The text below walks through data of patent publication US20130331405A1, “PIK3CA Mutation Status and SASH1 Expression Predicts Synergy Between Lapatinib and an AKT Inhibitor in HER2 Positive Breast Cancer” (THE REGENTS OF THE UNIVERSITY OF CALIFORNIA, priority 2012, published 2013).

SMILES strings stand for the structures.

One test concerns MDAMB453. Description: Growth inhibition (CTG assay), MDAMB453. The class given is cell-based. The settings on record: Homo sapiens, MDA-MB-453, PIK3CA p.H1047R, PTEN wt/p.E307K, average GI50, CTG assay. The procedure:
(§1) We used a panel of breast cancer cell lines that represent the heterogeneity seen in breast tumors for drug screening. Fixed numbers of cells were plated in 96 well plates. Using a Biotek liquid handling robot, cells were treated with nine two-fold dilutions of an AKT inhibitor (GSK690693), a second drug (lapatinib), or a combination of the two. Response was measured using CTG assay as % Growth Inhibition. 50% Growth Inhibition (GI50) was calculated. Synergistic interactions between drugs was calculated by standard median-effect method using % inhibition (inhibitory concentration) readings and reported as a combination index using the Synergy module in R.

A further test deals with UACC812. Description: Growth inhibition (CTG assay), UACC812. The class given is cell-based. The settings on record: Homo sapiens, UACC-812, PIK3CA wt, PTEN wt, average GI50, CTG assay. The procedure: as §1
In another test the test system is HCC202. Description: Growth inhibition (CTG assay), HCC202. The settings on record: Homo sapiens, PIK3CA p.E545K, average GI50, CTG assay. The class given is cell-based. The procedure: as §1
The next test relates to BT474. Description: Growth inhibition (CTG assay), BT474. The class given is cell-based. The settings on record: Homo sapiens, BT-474, PIK3CA wt/p.K111N, average GI50, CTG assay. The procedure:
as §1, with “50% Growth Inhibition (GI50) was calculated.” left out

A further test has as its system SUM190PT. Description: Growth inhibition (CTG assay), SUM190PT. The class given is cell-based. The settings on record: Homo sapiens, PIK3CA p.H1047R, average GI50, CTG assay. The procedure:
as §1

Another test deals with AU565. Description: Growth inhibition (CTG assay), AU565. The class given is cell-based. To be noted: Homo sapiens, PIK3CA wt, PTEN wt, average GI50, CTG assay. The procedure:
as §1

The test system of another test is HCC1954. Description: Growth inhibition (CTG assay), HCC1954. The class given is cell-based. The settings on record: Homo sapiens, PIK3CA p.H1047R, average GI50, CTG assay. How it is done: as §1
In another test the test system is SKBR3. Description: Growth inhibition (CTG assay), SKBR3. The class given is cell-based. The settings on record: Homo sapiens, SK-BR-3, PIK3CA wt, PTEN wt, average GI50, CTG assay. The procedure:
as §1

In a further test the test system is SUM225. Put plainly: Growth inhibition (CTG assay), SUM225. The class given is cell-based. The settings on record: Homo sapiens, PIK3CA wt, average GI50, CTG assay. How it is done: as §1
In a further test the test system is MDAMB361. Put plainly: Growth inhibition (CTG assay), MDAMB361. The class given is cell-based. To be noted: Homo sapiens, MDA-MB-361, PIK3CA wt/p.E545K, average GI50, CTG assay. The procedure: as §1
In a further test the test system is HCC1569. Description: Growth inhibition (CTG assay), HCC1569. The class given is cell-based. To be noted: Homo sapiens, PIK3CA wt, PTEN p.K267fs*9, average GI50, CTG assay. How it is done:
as §1

The test system of a further test is Akt. The settings on record: ATP-competitive; three Akt isoforms; cited from earlier work.
The subject of the next test is MDAMB175. Description: Growth inhibition (CTG assay), MDAMB175. The class given is cell-based. The settings on record: Homo sapiens, PIK3CA wt, PTEN wt, not HER2 amplified, average GI50, CTG assay. How it is done:
as §1

Usually GI50 stands for the concentration that inhibits growth by half.

Turning to `CCn1c(-c2nonc2N)nc2c(C#CC(C)(C)O)ncc(OC[C@H]3CCCNC3)c21` [AKT], the 50% growth inhibitory concentration (GI50) in the test on MDAMB453 was 0.109 µM; with UACC812, 0.041 µM; with HCC202 it was 0.015 µM; in the test on BT474, 0.089 µM; in the test on SUM190PT it was 0.229 µM; in the test with AU565, 0.109 µM. Also, the GI50 in the test with HCC1954 turned out to be 0.119 µM; with SKBR3, 0.054 µM; in the test on SUM225, 0.293 µM; in the test on MDAMB361, 0.063 µM; in the test with HCC1569, 0.122 µM; with MDAMB175 it was 0.027 µM. Besides, the “pan-Akt kinase inhibition potency” value in the test on Akt is “low-nanomolar”.

Turning to `CS(=O)(=O)CCNCc1ccc(-c2ccc3ncnc(Nc4ccc(OCc5cccc(F)c5)c(Cl)c4)c3c2)o1` [Lap, lapatinib], the GI50 was 0.922 µM in the test on MDAMB453; 0.106 µM in the test with UACC812; 0.068 µM in the test on HCC202; 0.116 µM with BT474; 0.806 µM in the test on SUM190PT; 0.087 µM with AU565. Moreover, the concentration for 50% growth inhibition (GI50) came to 0.673 µM in the test on HCC1954; 0.163 µM in the test on SKBR3; 0.245 µM in the test with SUM225; 0.106 µM with MDAMB361; 0.42 µM with HCC1569; 0.114 µM in the test with MDAMB175.
